Reference: article PMC11623267, “Inhibitors of malaria parasite cyclic nucleotide phosphodiesterases block asexual blood-stage development and mosquito transmission” (Science Advances, 2024)
pEC50: −log10 of the molar value. Like-named read-outs stand apart in the source and are kept apart here.

Assays:
Assay type in all cases: cell-based, Plasmodium falciparum
[1] = test system: P. falciparum (clone 3D7); experiment: Parasite reduction ratio (PRR) assay
Method: The in vitro killing profile of compounds was determined by monitoring the ability of parasites to recover following treatment with a compound of interest using a previously reported approach ([50]), which allowed calculation of the PRR ([51]). […] To quantify the number of viable parasites following treatment, four independent sets of threefold serial dilutions were performed on each sample, which were assayed for the presence or absence of parasites after 28 days using the LDH assay, and the number of viable parasites was determined by the number of wells showing growth. PRR and PCT99.9% were calculated as previously reported ([50]).

[2] = test system: P. falciparum Dd2-B2; experiment: 72-hour flow cytometry EC50 assay, Dd2-B2 parental line; details: Plasmodium falciparum, DD2, read-out: EC50 Dd2-B2 parental line
[3] = test system: P. falciparum Dd2-B2 lines selected under drug pressure; experiment: 72-hour flow cytometry EC50 assay, lines selected under drug pressure; details: for pEC50: Plasmodium falciparum
[4] = test system: P. falciparum clinical isolates from Tororo and Busia Districts of Uganda; experiment: Ex vivo 72-hour SYBR Green assay, Ugandan clinical isolates; details: 47 Ugandan isolates
From the text: Clinical isolates were from the Tororo District of Uganda, located in the central-eastern part of the county near the Kenya border. Tororo and surrounding areas have high-intensity, year-round malaria transmission. […] Patients reporting use of antimalarial treatment within the previous 30 days or with evidence of an infection with other Plasmodium species were excluded. Informed consent was obtained from patients and/or primary care givers (depending on age); children aged 8 to 17 years provided assent. Two to 5 ml of blood was collected by venipuncture in a heparin tube. Samples were delivered to the adjacent IDRC laboratory at Tororo District Hospital or transported by car from Masafu Hospital on the day of collections for storage of blood spots on filter paper (for isolation of nucleic acids) and initiation of ex vivo culture of malaria parasites. Treatment involved a standard therapeutic regimen for uncomplicated falciparum malaria, which was a 3-day course of the artemisinin-based combination therapy (ACT), artemether-lumefantrine. In Uganda, at the time of sampling, there was widespread resistance to the antifolate drugs due to mutant pfdhfr/pfdhps alleles. […] Chloroquine was prepared at 10 mM in water. Stock solutions were stored at −20°C. Working solutions were freshly prepared from a single aliquot within 4 hours of the susceptibility test and stored at 4°C.
Samples were delivered to the adjacent IDRC laboratory at Tororo District Hospital or transported by car from Masafu Hospital on the day of collection for storage of blood spots on filter paper (for isolation of nucleic acids) and initiation of ex vivo culture of malaria parasites. […] Before assay, 10 mM antimalarial stock compounds were diluted as necessary in DMSO and stored at −20°C. […] Compounds were serially diluted threefold in a 96-well assay plate in complete medium to a final volume of 50 μl, in columns 1 to 10, with concentrations optimized to capture full dose-response curves. Column 11 contained compound-free controls, while column 12 contained uninfected human RBC controls. Parasite culture (150 μl) was added to columns 1 to 11 of the assay plate with a final volume of 200 μl per well, 0.2% parasitemia, and 2% hematocrit. […] Thawed plates were incubated with SYBR Green lysis buffer for 1 hour in the dark as previously reported ([62]). Fluorescence was quantified using a BMG Fluostar Optima plate reader at an excitation of 485 nm and an emission of 530 nm, and data were plotted using GraphPad Prism 7. The data were curve fit with a variable slope function to estimate IC50 values. For each isolate, a Z′ factor to assess assay quality was calculated from positive controls (eight drug-free wells) and negative controls (eight parasite-free, red cell control wells). Z′ values over 0.5 were considered good assays, but each curve was also examined by eye for suitability. Some assays with Z′ below 0.5 may be considered valid depending on factors such as the SE of the curve-fit IC50.

SMILES | Lag phase ([1]; 10× EC50, 3D7) | Log PRR ([1]; 10× EC50, 3D7) | PCT99.9% (hours taken to kill 99.9% of the parasites) ([1]; 10× EC50, 3D7) | Slope ([1]; 10× EC50, 3D7 killing profile) | Killing profile ([1]; 10× EC50, faster than pyrimethamine, slower than chloroquine) | pEC50 [2] | pEC50 ([3]; DD2, read-out: EC50, line selected with SAL-0010003, Well A7) | pEC50 ([3]; DD2, read-out: EC50, line selected with SAL-0010003, Well E2) | pEC50 ([3]; DD2, read-out: EC50, line selected with SAL-0010003, Well F10) | Mean fold change in EC50 ([3]; selected lines vs Dd2-B2 parental line, ±SD) | EC50 shift, line selected with SAL-0010003, Well A7 ([3]; vs Dd2-B2) | EC50 shift, line selected with SAL-0010003, Well E2 ([3]; vs Dd2-B2) | EC50 shift, line selected with SAL-0010003, Well F10 ([3]; vs Dd2-B2) | pEC50 ([4]; read-out: EC50 clinical isolates, Gmean (geometric mean)) | pEC50 ([4]; read-out: EC50 clinical isolates, Median)
CC(C)c1n[nH]c2c(=O)[nH]c(Cc3ccc(F)cc3F)nc12 [SAL-0010003] | 0 h | 3.11 | 47.1 h | −0.0647 ± 0.0047 | fast/moderate killing profile | 6.52 | 5.55 | 5.60 | 5.79 | 7.6 ± 2.0 fold | 9.2 fold | 8.3 fold | 5.3 fold | – | –
CC(C)c1[nH]nc2c(=O)[nH]c(Cc3ccccc3F)nc12 [SAL-0010042] | – | – | – | – | – | – | – | – | – | – | – | – | – | 6.69 | 6.71
